Laboratory results as given in patent publication US4657924A, “Nafazatrom as a lipoxygenase inhibitor” (priority 1983, dated 1987).

Experiments:
[1] = test system: hydroperoxidase portion of cyclooxygenase; conditions: T. E. Eling et al., 1982; cited from earlier work
[2] = test system: disorders in cardiac rhythm following coronary ligature; assay: Coronary artery ligation in rats: disorders in cardiac rhythm; assay type: in vivo, rat (Wistar); conditions: for Duration of VF (seconds), early / Duration of VT (seconds), early / Extrasystoles %, early: 0-10 minutes; for Duration of VF (seconds), late / Duration of VT (seconds), late / Extrasystoles %, late: 2-4 hours
From the text: Ligation of the left coronary artery of the rat heart and the disorders in cardiac rhythm which thereby occur form a relatively simple model for investigating substances having antiarrhythmic actions and effects on the developing myocardial ischaemia (Clark et al., J. Pharmacol. Meth. 3, 357, 1980). The effects of nafazatrom on antiarrhythmic and antiischaemic properties in conscious rats was investigated in this model. Particular importance was placed on the severity and quantity of disorders in cardiac rhythm which occurred.
Male Wistar rats (250-350 g) were superficially anaesthetized with ether and investigated for rhythm disorders. Animals with rhythm abnormalities before the start of the experiment were excluded. In acute surgery, the animals were again anaesthetized with ether. In the lateral dorsal position, the thorax was opened somewhat to the left alongside the central line and the heart was exteriorized. Close below the left heart auricle, a silk ligature (3-0) was looped through the muscle of the left heart under the anterior coronary artery. Animals which developed rhythm disorders during this procedure were excluded. The left coronary artery was ligatured by the method described by Selye et al. (Angiology 11, 398, 1960), the heart was returned to the thorax and the wound was rapidly closed with thread. Since the thorax had not been opened for longer than about 45 seconds, artificial respiration of the animals was unnecessary. The operation mortality was between 25 and 40% within the first hours, and in particular myocardial haemorrhages, rhythm disorders with ventricular fibrillation, and massive cardiac infractions occurred. In a sham-operatedgroup, the same experimental conditions were investigated, with the exception that the coronary artery remained open. Shortly after the ligature had been made, early rhythm disorders were observed, which were accompanied in some cases (untreated) with ventricular fibrillations. In most cases, this ventricular fibrillation spontaneously turned into uniform sinus rhythm of heart contraction. The disorders in cardiac rhythm were evaluated by the plan described by Clark (see above). Ventricular tachycardia was defined as the result of more than 10 successive rhythm disorders with extrasystoles. Electrocardiographic changes included a rise in the ST segment, a drop in the Q waves and a rise in the QT interval. The total number of ectopic activity in each individual animal was determined by counting the ventricular extrasystoles, including tachycardia and fibrillations.
Three groups were investigated: group I received the diluent (1% strength aqueous Tylose suspension, that is to say methylhydroxyethyl-cellulose) twice daily perorally (0.5 ml/kg) for 10 days and by the same administration and in the same amount, after coronary ligature, for a further 20 days; group II was pretreated with the diluent for 10 days (0.5 ml/kg) and was treated with 30 or 100 mg/kg of nafazatrom (in each case suspended in 0.5 ml/kg of 1% strength Tylose suspension) twice daily perorally for 20 days, after coronary ligature (the first nafazatrom administration was effected immediately after the coronary ligature); group III received the above oral doses of nafazatrom in the course of 10 days before the ligature, and the diluent Tylose suspension for 10 days after the coronary occlusion had been effected. The sham-operated animals remained untreated. The peripheral ECG in the extremities was determined in lead II, and in particular, as a control before the start of treatment, shortly before and during coronary ligature, 10 minutes after coronary ligature had been effected, and--after renewed ether anaesthesia-- between the 2nd and 4th hour after coronary occlusion. Each time, the animals were superficially anaesthetized again with ether when the ECG was recorded. At the end of the treatment period, a last ECG was recorded shortly before the animals were sacrificed. […]

[3] = test system: synthesis of various prostaglandins in RSVM and BAM; assay: Prostaglandin synthesis in microsomes of sheep seminal vesicles (RSVM) and cattle aortas (BAM); assay type: biochemical
Description: The specific PGI2 -stimulating action of nafazatrom was shown in vitro in a mixture of microsomes from the seminal vesicles of sheep (RSVM) and the aortas of cattle (BAM) (compare F. Cottee et al., Protaglandins, 14, 413, 1977). ^3 H-arachidonic acid was incubated with a mixture of RSVM and BAM in the presence of 3.10^-5 g/ml of nafazatrom at 25° C. for 10 minutes. The reaction was stopped by acidification to pH 3.5. The fatty acid metabolites were extracted with ethyl acetate. The ethyl acetate was evaporated off under N2, the residue was taken up in CH3 OH/CHCl3 (1:1) and the mixture was discharged on thin layer chromatography plastic sheets. Separation was effected with a mobile phase mixture of ethyl acetate/glacial acetic acid/isooctane/H2 O (110:20:50:10; organic phase) (P. Needleman et al., The Journal of Clinical Investigation 1978, 61, 839-849). The distribution of the radioactivity was measured by means of a radio scanner.

[4] = group II, after-treatment 30 mg/kg, 2 × daily, 15 animals
[5] = group II, after-treatment 30 mg/kg, 2 × daily, 9 animals
[6] = group II, after-treatment 100 mg/kg, 2 × daily, 18 animals
[7] = group III, pre-treatment 30 mg/kg, 10 days, 12 animals
[8] = group III, pre-treatment 30 mg/kg, 10 days, 10 animals
[9] = group III, pre-treatment 100 mg/kg, 10 days, 16 animals
[10] = group III, pre-treatment 100 mg/kg, 10 days, 11 animals
[11] = 3.10^-5 g/ml, 25° C., 10 minutes

## CC1=NN(CCOc2ccc3ccccc3c2)C(=O)C1 [nafazatrom, 3-methyl-1-[2-(2-naphthyloxy)-ethyl]-2-pyrazolin-5-one]
[1]
  action on hydroperoxidase portion of cyclooxygenase; conversion of arachidonic acid into PGH2: acts as a reducing cofactor of the hydroperoxidase portion of cyclooxygenase and accelerates the conversion of arachidonic acid into PGH2
[2]; early (0-10 minutes) and late phase (2-4 hours)
  irregularities in comparison with the control animals: significantly fewer irregularities
[2]; [4]
  Duration of VF (seconds), early: 65 s
  Duration of VT (seconds), early: 72 s
  Extrasystoles %, early: 94%
[2]; [5]
  Duration of VF (seconds), late: 0 s
  Duration of VT (seconds), late: 4 s
  Extrasystoles %, late: 6%
[2]; [6]
  Duration of VF (seconds), early: 68 s
  Duration of VT (seconds), early: 60 s
  Extrasystoles %, early: 90%
  Duration of VF (seconds), late: 0 s
  Duration of VT (seconds), late: 0 s
  Extrasystoles %, late: 0%
[2]; [7]
  Duration of VF (seconds), early: 5 s
  Duration of VT (seconds), early: 9 s
  Extrasystoles %, early: 34%
[2]; [8]
  Duration of VF (seconds), late: 11 s
  Duration of VT (seconds), late: 10 s
  Extrasystoles %, late: 25%
[2]; [9]
  Duration of VF (seconds), early: 0 s
  Duration of VT (seconds), early: 13 s
  Extrasystoles %, early: 25%
[2]; [10]
  Duration of VF (seconds), late: 6 s
  Duration of VT (seconds), late: 10 s
  Extrasystoles %, late: 4%
[2]; pre-treatment of 100 mg/kg
  prevention of rhythm disorders: prevent almost all the rhythm disorders
[3]; [11]
  Increase in concentration (in %) in comparison with the control, 6-Keto-PGF1 α: 300-400%
  Increase in concentration (in %) in comparison with the control, PGD2: 0%
  Increase in concentration (in %) in comparison with the control, PGE2: 0%
  Increase in concentration (in %) in comparison with the control, PGF2 α: 0%
[3]; in words
  synthesis of prostacyclin (PGI2): specifically stimulates
[3]; in words, see Example 2
  synthesis of the prostaglandins having a vasoconstricting action and of TXA2: not influenced
